Results taken from article PMC8875392, “Design and Characterization of Myristoylated and Non-Myristoylated Peptides Effective against Candida spp. Clinical Isolates” (International Journal of Molecular Sciences, 2022).
Converted amounts (≈) assume the structure as drawn. Read-outs that look alike come from different tables or passages of the source. Where a SMILES comes first, the peptide text is derived from it. The star is where a group is joined. Myristoyl = CCCCCCCCCCCCCC(=O)*

How the values were obtained:
[1] = Membrane partition, Trp-1 fluorescence upon titration with LUVs; assay type: binding; settings: for KX (mole fraction partition constant): peptide 1.0 μM, 20 mM phosphate pH 7.4, 150 mM NaCl, 0.8 mM EDTA, 298 K, Trp fluorescence, quadruplicate; for ΔG: ΔG = −RT lnKx; for Selectivity Ratio: ratio between partition constants in anionic (POPC/POPG) and zwitterionic (POPC) membranes
Description: To quantify the interaction of different lipidated and non-lipidated peptides with membrane mimetic systems, we measured the intrinsic fluorescence of Trp-1 upon partition with LUVs (large unilamellar vesicles) of different compositions. Briefly, the mixtures of POPC/POPG (70%/30% w/w) LUVs were used to mimic anionic membranes and POPC only to mimic zwitterionic membranes. […] The mole fraction partition constants Kx were calculated from the partition isotherms as previously described. Figure 2 reports the partition isotherms for the titration of myristoylated and non-myristoylated peptides with POPC and POPC/POPG vesicles.
The values of Kx for all peptides are reported in Table 2 together with ΔG values, calculated using the expression ΔG = −RT lnKx, and the selectivity ratio defined as the ratio between partition constants determined in anionic and zwitterionic membranes. Higher values of the selectivity ratio represent a preference of the peptide for anionic vesicles, while lower values indicate a preference for the zwitterionic one.
The lipids POPC (1-palmitoyl-2-oleoyl-sn-glycero-3-phosphocholine) and POPG (1-palmitoyl-2-oleoyl-sn-glycero-3-phosphoglycerol) were purchased from Avanti Polar Lipids (Alabaster, AL, USA) and used without further purification. LUVs (Large Unilamellar Vesicles) were prepared as previously reported. Briefly, appropriate amounts of lipids were dissolved in chloroform/methanol 9:1. The solvent was then removed by rotary evaporation and samples were placed overnight under a high vacuum. The lipid film was then hydrated by adding 1 mL of buffer (20 mM phosphate buffer at pH 7.4 with 150 mM NaCl and 0.8 mM EDTA) and then subjected to 5 freeze–thaw cycles and vortexed. The multilamellar vesicles (MLVS) were extruded through a polycarbonate membrane with pores of 100 nm by an Avanti polar mini extruder, and the obtained LUVs were used within 48 h of preparation. LUVs were composed of 100% POPC and a 70%/30% (w/w) combination of POPC/POPG. The final concentration of the lipid was 10 mM.
All the steady-state fluorescence measurements were carried out using a Perkin Elmer LS55 fluorescence spectrophotometer. All the experiments were conducted at 298 K in a thermostatic cell holder and in 20 mM phosphate buffer at pH 7.4 containing 0.8 mM EDTA and 150 mM NaCl unless otherwise specified.
Since all peptides contain tryptophan, fluorescence spectroscopy is an appropriate tool for studying these molecules. Peptide partitioning between buffer and lipid vesicles was monitored by measuring the increase in tryptophan fluorescence upon the addition of LUVs. Trp fluorescence spectra were recorded with λexc = 295 nm and scanning the emission between 305 and 400 nm. Measurements were carried out with a cross-oriented configuration of polarizers (polem = 0° and polexc = 90°). Briefly, a 1.0 μM solution of the peptide was titrated with LUVs of different compositions (POPC 100% and 70%/30% POPC/POPG) as previously described. The background effects of vesicles and buffer were subtracted from each spectrum. All the fluorescence emissions were corrected for dilution. Mole fraction partition coefficients Kx were calculated from the fraction of the partitioned peptide fp as previously described. The fraction of the partitioned peptide fp is given by the following equation [53] (6) fp=Kx[L]/[W]+Kx[L] where Kx is the mole fraction partition constant, and [L] and [W] are the molar concentrations of lipids and water, respectively.

[2] = system: Galleria mellonella larvae; test: In vivo peptide toxicity in Galleria mellonella model; settings: uninfected larvae, groups of ten, peptide 640 µg/mL, single injection, 30 °C
Description: (§1) Multidrug-resistant C. auris was chosen as a representative species for in vivo studies. […] Groups of ten G. mellonella larvae were infected with C. auris and treated with the Pep-B and Myr-B peptides at a concentration of 640 µg/mL (about 400 µM).
(§2) Ten larvae (250–320 mg each) were selected at random for each step in the procedure. Any larvae with darkening of the cuticle were discarded. The test compounds and yeast were injected into the hemocoel in water buffer through the last left proleg (Insumed 30G Pic, Italy, syringe volume 0.5 mL, needle size 30G). The larvae were incubated in the dark for 3 days, and mortality was recorded daily.
(§3) For the peptide efficacy experiment, ten larvae were injected into the last left proleg with a pre-determined infective dose of yeast and the dose of peptides at the same time in a final volume of 10 μL and incubated at 30 °C. Each step in the procedure included six groups of 10 larvae: C. auris-infected larvae (10^7 CFU), infected and treated larvae with peptide B (640 μg/mL), infected and treated larvae with peptide Myr-B (640 μg/mL), treated larvae with peptide B (640 μg/mL), treated larvae with peptide Myr-B (640 μg/mL), and vehicle-injected control (water). The mortality was recorded daily for 3 days.

[3] = system: C. albicans clinical isolates; assay type: cell-based, Candida albicans; settings: 16 h
Description: The antifungal activity of AMPs was determined against 50 clinical isolates, 10 for each of the following Candida species: C. albicans, C. tropicalis, C. glabrata, C. parapsilosis, and C. auris. The latter were derived from patients with positive blood cultures in four hospitals in India, with known resistance profiles to fluconazole, voriconazole, and echinocandins. Yeast cells were grown in Brain Heart Infusion (BHI) medium (Sigma-Aldrich, Gillingham, UK) for 16 h at 37 °C in a 150-rpm orbital shaker. Cells were then sub-inoculated in a fresh BHI medium and grown to an optical density (OD) of 0.3. The turbidity of the inoculum was adjusted to 0.5 McFarland and diluted 1:500 in RPMI 1640 broth, corresponding to around […].
Minimal inhibitory concentrations (MICs) were determined by Broth microdilution susceptibility tests, according to The Clinical and Laboratory Standards Institute (CLSI) international guidelines. A fungal suspension of 0.5 MacFarland was diluted 1:500 in RPMI 1640 broth and incubated in 96 multi-well plates containing AMPs at different concentrations ranging from 0.125 to 256 μg/mL. In this range of concentration, lipopeptides were completely soluble. […] The MIC90 represents the value at which ≥90% of the strains within a test population were inhibited.

[4] = system: Candida auris; test: In vivo peptide efficacy in Galleria mellonella larvae infected with C. auris; settings: larvae infected with Candida auris 10^7 CFU, groups of ten, peptide 640 µg/mL injected at the same time, 30 °C
Description: as §1, §2
An infective dose of yeast Candida auris was determined by injecting groups of ten larvae with a suspension at 10^5, 10^6, 10^7, and 10^8 colony-forming units (CFU) per injection. The larvae were incubated for 3 days at 30 °C. An infective dose was defined as the one that caused an immune response, recognizable by the darkening of the cuticle and able to kill approximately 50% of larvae after 24 h.
as §3

[5] = system: rabbit erythrocytes
Description: The hemolytic assay was performed on rabbit erythrocytes (Rockland) maintained in Alsever’s solution (Innovative Research). Briefly, after the removal of Alsever’s solution, the erythrocytes were resuspended in PBS and counted in a hemocytometer. A suspension of 5,000,000 red blood cells was incubated with four dilutions (from 5 µm to 50 µm) of the six peptides in a 96-well microplate. As a negative control, erythrocytes were incubated without the peptides, while as a positive control, erythrocyte was added with triton 10% v/v. The plate was incubated at 37 °C for 2 h and subsequently centrifuged at 1200 rpm × 3 min to separate the pellet from the supernatant. The absorbance of the supernatant was measured at 492 nm. Each point was made in triplicate. The relative OD compared to the positive control defined the percentage of hemolysis [71]. Statistical analysis was performed using two-way ANOVA analysis followed by Bonferroni’s post-test.

Row | Compound | KX (mole fraction partition constant) ([1]; POPC LUVs) | ΔG ([1]; POPC LUVs) | KX (mole fraction partition constant) ([1]; POPC/POPG 70%/30% LUVs) | ΔG ([1]; POPC/POPG LUVs) | Selectivity Ratio [1] | Peptide toxicity, DAY 1 Dead [2] | Peptide toxicity, DAY 2 Dead [2] | Peptide toxicity, DAY 3 Dead [2] | MIC [3] | MIC90 [3] | Peptide efficacy, DAY 1 Alive [4] | Peptide efficacy, DAY 1 Dead [4] | Peptide efficacy, DAY 2 Alive [4] | Peptide efficacy, DAY 2 Dead [4] | Peptide efficacy, DAY 3 Alive [4] | Peptide efficacy, DAY 3 Dead [4] | hemolysis ([5]; 5 µM) | MIC (Range) [3] | hemolysis ([5]; 50 µM)
1 | CCCCCCCCCCCCCC(=O)N[C@@H](Cc1c[nH]c2ccccc12)C(=O)N[C@@H](CCCNC(=N)N)C(=O)NCC(=O)N[C@H](C(=O)N[C@H](C(=O)N[C@@H](CCCCN)C(=O)N[C@H](C(=O)N[C@H](C(=O)N[C@@H](CCCCN)C(=O)N[C@@H](CCCCN)C(=O)N[C@H](C(=O)O)C(C)C)C(C)C)C(C)C)[C@@H](C)O)[C@@H](C)CC [Myr-B] (Myristoyl-WRGITKVVKKV-OH; C-terminus assumed) | (4.7 ± 0.6) × 10^5 | -7.737 kcal/mol | (1.7 ± 0.2) × 10^6 | -8.499 kcal/mol | 3.62 | 1 | 1 | 1 | 16 µg/mL (≈ 10.5 µM) | 16 µg/mL (≈ 10.5 µM) | 8 | 2 | 3 | 7 | 3 | 7 | – | – | –
2 | CCCCCCCCCCCCCC(=O)N[C@@H](Cc1c[nH]c2ccccc12)C(=O)N[C@@H](Cc1ccccc1)C(=O)NCC(=O)N[C@@H](CCCCN)C(=O)N[C@@H](CC(C)C)C(=O)N[C@@H](Cc1ccc(O)cc1)C(=O)N[C@@H](CCCNC(=N)N)C(=O)NCC(=O)N[C@H](C(=O)N[C@H](C(=O)N[C@@H](CCCCN)C(=O)O)[C@@H](C)O)[C@@H](C)CC [Myr-A] (Myristoyl-WFGKLYRGITK-OH; C-terminus assumed) | (1.03 ± 0.04) × 10^5 | -6.831 kcal/mol | (4.3 ± 0.8) × 10^5 | -7.684 kcal/mol | 4.17 | – | – | – | – | 16 µg/mL (≈ 10.1 µM) | – | – | – | – | – | – | 0.1% | 8 to 16 µg/mL | –
3 | CCCCCCCCCCCCCC(=O)N[C@@H](Cc1c[nH]c2ccccc12)C(=O)N[C@H](C(=O)N[C@H](C(=O)N[C@@H](CCCCN)C(=O)N[C@@H](CCCCN)C(=O)N[C@H](C(=O)N[C@@H](CCCCN)C(=O)NCC(=O)N[C@@H](CC(C)C)C(=O)N[C@@H](CC(C)C)C(=O)N[C@@H](CCCCN)C(=O)O)C(C)C)C(C)C)C(C)C [Myr-C] (Myristoyl-WVVKKVKGLLK-OH; C-terminus assumed) | (4.9 ± 0.3) × 10^5 | -7.753 kcal/mol | (1.2 ± 0.2) × 10^6 | -8.293 kcal/mol | 2.45 | – | – | – | 32 µg/mL (≈ 21.2 µM) | 32 µg/mL (≈ 21.2 µM) | – | – | – | – | – | – | – | – | 28.5%
